Source: patent publication US20240115554A1, “METHODS FOR TREATING OBSTRUCTIVE HYPERTROPHIC CARDIOMYOPATHY” (Cytokinetics, Incorporated, priority 2022, published 2024)

Legend:
[1] = test system: healthy adults; conditions: in vivo
Text: Study Overview and Ethics. The study used a randomized, placebo-controlled, single-ascending dose (SAD) and multiple-ascending dose (MAD) design (FIG. 2). […] Dose escalation was to be stopped when this range was achieved, or when a non-tolerated dose was identified, if earlier.
Single-ascending dose (SAD) cohorts. The SAD portion of the study used a randomized, double-blind, placebo-controlled, sequential, escalating-dose design, in which participants received single-ascending oral doses of the study drug. Seven cohorts were dosed in sequence (FIG. 2).
Recommendations regarding dose escalation in the SAD cohorts—and in the MAD cohorts described below—were made by the treating investigator (who was blinded to treatment group) and endorsed or not by the Dose Level Review Committee (DLRC), who were unblinded. […] Criteria for escalation included that no more than 2 participants in a dose group developed an LVEF <50% and no individual developed an LVEF <45%.
Multiple-ascending dose (MAD) cohorts. The MAD cohorts also used a randomized, double-blind, placebo-controlled, sequential design.
Safety and tolerability. Safety was assessed by the incidence of adverse events (AEs) and by incidence of reduced LVEF. Treatment-emergent AEs (TEAE) were defined as AEs that began or increased after study drug administration. All AEs were coded using the Medical Dictionary for Regulatory Activities version 21.1 and graded using the National Cancer Institute Common Terminology Criteria for AEs (version 4.03) 5-point severity scale. Each AE was judged as either related or unrelated to the study drug by the treating investigator. Clinical laboratory tests were obtained at regular intervals in all cohorts.
For safety monitoring, participants in all cohorts had periodic echocardiograms, which were assessed by a cardiologist. In the SAD and MAD cohorts, echocardiograms were also reviewed by an echocardiography core laboratory for PD assessments, as described below. In addition, participants in all cohorts were monitored with continuous 12-lead ECG recording using Holter monitors. For safety monitoring, a single 12-lead ECG was extracted at screening, pre-dose, and periodically throughout follow-up, and interpreted by the investigator. In the SAD, MAD, and CYP2D6-PM cohorts, cardiodynamic ECGs (triplicate 10-second, 12-lead ECG recordings) were obtained prior to the corresponding PK blood and ECG intervals quantitated by qualified readers.

[2] = test system: patients with symptomatic obstructive HCM (oHCM); assay: Phase 2 trial: NYHA functional class; type: in vivo, human
Text: Secondary results from the clinical study included data from Cohort 3 (n=13). […] Overall, treatment duration for each patient in the study was 10 weeks with an echocardiogram conducted 2 weeks after the last dose. Efficacy endpoints included resting and provoked LVOT gradients, NYHA class, and NT-proBNP.

[3] = test system: patients with symptomatic oHCM; assay: Open-label extension: NYHA functional class; type: in vivo, human
Procedure: NYHA Functional Classification is recorded. When available, patients will complete patient-reported outcome (PRO) questionnaires: Kansas City Cardiomyopathy Questionnaire (KCCQ), Seattle Angina Questionnaire-7 (SAQ-7), EuroQol 5-Dimension 5-Level Instrument (EQ-5D-5L), Patient's Global Impression of Change (PGI-C) Scale, Clinical Global Impressions (CGI) Scale, SF-36 Physical Functioning Subscale (SF-36 PFS) as specified in Table 23.

[4] = test system: patients with symptomatic oHCM; assay: Open-label extension: background therapy reduction/withdrawal (BTR/W); type: in vivo, human
Procedure: Patients were dosed following the protocol of Example 3a or Example 3b. Patients were classified as receiving SoC therapy (both first line and second line) if treated with at least one beta-blocker (BB), non-dihydropyridine calcium channel blocker (CCB), or disopyramide. […] Successful BTR/W was defined as at least a dose-reduction of one medication to ≤50% of baseline. Serial metrics were collected per protocol but side effects specifically related to SoC therapy were not.

[5] = test system: patients with symptomatic oHCM; assay: Open-label extension: global longitudinal strain (GLS) by echocardiography; type: in vivo, human; conditions: baseline −13.9%±3.2
Procedure: GLS analysis was performed using a vendor-neutral analysis package (TOMTEC® Imaging Systems).

[6] = target: cardiac myosin (Homo sapiens, UniProt P12883); assay: Preclinical models: myocardial contractility; conditions: preclinically in vitro and in vivo
Text: This mechanism of action may be therapeutically effective in conditions characterized by excessive hypercontractility, such as HCM (e.g., obstructive HCM, also referred to as oHCM).

[7] = pooled aficamten Cohorts 1 and 2
[8] = by week 48, Examples 3a and 3b interim

Sequence of cardiac myosin (P12883 whole entry): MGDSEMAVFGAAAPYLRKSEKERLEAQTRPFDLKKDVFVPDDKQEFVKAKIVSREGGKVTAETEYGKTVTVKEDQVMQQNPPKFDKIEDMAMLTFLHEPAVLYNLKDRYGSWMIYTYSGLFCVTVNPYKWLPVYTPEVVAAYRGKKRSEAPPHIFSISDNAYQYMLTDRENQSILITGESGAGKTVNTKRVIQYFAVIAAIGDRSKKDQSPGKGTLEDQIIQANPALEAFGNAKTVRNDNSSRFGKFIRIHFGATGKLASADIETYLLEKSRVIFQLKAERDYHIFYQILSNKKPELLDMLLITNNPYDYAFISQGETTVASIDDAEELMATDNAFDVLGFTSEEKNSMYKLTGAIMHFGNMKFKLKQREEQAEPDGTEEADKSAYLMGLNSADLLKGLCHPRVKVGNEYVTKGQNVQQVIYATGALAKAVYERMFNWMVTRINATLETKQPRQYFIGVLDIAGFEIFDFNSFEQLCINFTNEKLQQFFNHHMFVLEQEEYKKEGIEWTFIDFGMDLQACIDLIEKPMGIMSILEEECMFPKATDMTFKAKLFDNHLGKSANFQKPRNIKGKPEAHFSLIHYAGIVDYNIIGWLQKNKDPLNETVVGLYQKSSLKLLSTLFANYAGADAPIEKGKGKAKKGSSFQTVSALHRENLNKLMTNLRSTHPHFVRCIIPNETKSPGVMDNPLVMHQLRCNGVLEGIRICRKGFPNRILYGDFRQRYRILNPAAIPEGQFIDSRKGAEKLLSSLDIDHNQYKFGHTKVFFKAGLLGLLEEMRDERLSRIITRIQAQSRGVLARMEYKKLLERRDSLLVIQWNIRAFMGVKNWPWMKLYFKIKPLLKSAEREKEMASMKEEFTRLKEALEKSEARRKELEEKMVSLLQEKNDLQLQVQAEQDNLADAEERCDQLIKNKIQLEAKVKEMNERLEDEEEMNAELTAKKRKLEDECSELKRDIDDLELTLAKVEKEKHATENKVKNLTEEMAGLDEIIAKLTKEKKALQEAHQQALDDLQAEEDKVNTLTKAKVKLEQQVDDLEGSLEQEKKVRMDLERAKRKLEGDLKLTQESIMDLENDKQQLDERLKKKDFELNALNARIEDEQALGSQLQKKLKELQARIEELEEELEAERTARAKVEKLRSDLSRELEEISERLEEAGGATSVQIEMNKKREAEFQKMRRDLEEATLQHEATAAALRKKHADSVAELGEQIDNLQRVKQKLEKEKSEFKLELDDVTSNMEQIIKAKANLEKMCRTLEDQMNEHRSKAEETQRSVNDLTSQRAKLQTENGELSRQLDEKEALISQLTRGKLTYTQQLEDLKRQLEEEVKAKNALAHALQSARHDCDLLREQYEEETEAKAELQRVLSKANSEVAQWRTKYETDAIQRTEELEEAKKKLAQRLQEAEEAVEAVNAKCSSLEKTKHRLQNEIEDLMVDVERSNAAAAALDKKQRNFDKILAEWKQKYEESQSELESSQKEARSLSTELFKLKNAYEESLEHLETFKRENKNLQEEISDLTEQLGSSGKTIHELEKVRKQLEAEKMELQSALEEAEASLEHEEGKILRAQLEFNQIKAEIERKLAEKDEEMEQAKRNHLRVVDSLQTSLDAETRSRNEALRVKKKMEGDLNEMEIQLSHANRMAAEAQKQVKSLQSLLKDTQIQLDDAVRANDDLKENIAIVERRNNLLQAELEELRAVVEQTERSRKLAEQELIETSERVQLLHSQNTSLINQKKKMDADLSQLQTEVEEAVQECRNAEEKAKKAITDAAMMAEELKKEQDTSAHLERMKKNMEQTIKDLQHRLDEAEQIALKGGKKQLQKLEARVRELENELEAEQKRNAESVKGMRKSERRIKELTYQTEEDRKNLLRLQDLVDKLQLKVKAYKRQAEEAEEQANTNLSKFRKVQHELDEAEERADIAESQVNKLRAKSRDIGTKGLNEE
Sequence of cardiac myosin (P08590 whole entry partner): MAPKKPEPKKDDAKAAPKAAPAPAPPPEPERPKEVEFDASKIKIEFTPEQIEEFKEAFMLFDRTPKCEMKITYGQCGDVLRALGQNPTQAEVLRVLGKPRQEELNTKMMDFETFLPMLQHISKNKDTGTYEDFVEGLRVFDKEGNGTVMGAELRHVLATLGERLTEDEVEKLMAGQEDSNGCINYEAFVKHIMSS
Sequence of cardiac myosin (P10916 whole entry partner): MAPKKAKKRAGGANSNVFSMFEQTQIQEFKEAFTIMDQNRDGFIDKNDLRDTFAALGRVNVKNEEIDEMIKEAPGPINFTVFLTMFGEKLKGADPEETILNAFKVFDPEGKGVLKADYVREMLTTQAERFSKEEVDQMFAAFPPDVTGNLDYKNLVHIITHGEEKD

SMILES: CCc1nc(-c2ccc3c(c2)CC[C@H]3NC(=O)c2cnn(C)c2)no1 [aficamten, (R)—N-(5-(5-ethyl-1,2,4-oxadiazol-3-yl)-2,3-dihydro-1H-inden-1-yl)-1-methyl-1H-pyrazole-4-carboxamide]
- participants with echocardiogram-related AEs of decreased ejection fraction <45% ([1]; human): 3 participants
- overall safety and tolerability [1]: safe and well tolerated
- post-dose LVEF of 1 participant with LVEF <50% [1]: 46.2%
- serum chemistry, hematology, urinalysis findings [1]: No clinically significant serum chemistry, hematology, or urinalysis findings
- patients with improvement in NYHA class by one or more classes ([2]; Cohort 2): 64%
- NYHA improvement in baseline class III patients ([2]; Cohort 3): all baseline NYHA class III patients improved by ≥1 class
- patients with ≥1 NYHA class improvement ([2]; Cohort 3 (Eleven patients)): 85%
- patients converted from class III to class II or I ([2]; Cohorts 1 and 2): 7 patients
- patients who improved from NYHA class III to I [2, 7]: one
- patients who improved from NYHA class III to II [2, 7]: 6 patients
- patients with change in NYHA class of one or more classes ([2]; pooled aficamten Cohorts 1 and 2 (15 of 28)): 53%
- patients with worsening in NYHA class from baseline ([3]; Example 3a, preliminary): No patients
- patients with NYHA class improvement of one or more classes ([3]; Example 3a, up to 6 months): about 80%
- patients with NYHA FC worsening [3, 8]: none
- patients with ≥1 NYHA FC improvement [3, 8]: 88%
- patients in NYHA class II ([3]; week 12 (baseline 47%), Example 3a): 52%
- patients in NYHA class III ([3]; week 12 (baseline 53%), Example 3a): 7%
- patients in NYHA class I ([3]; week 12, Example 3a): 41%
- patients in NYHA class I ([3]; week 24, Example 3a): 56%
- patients in NYHA class II ([3]; week 24, Example 3a): 39%
- patients in NYHA class III ([3]; week 24, Example 3a): 6%
- patients achieving any successful BTR/W among those attempted ([4]; 17 of 20 patients with attempted BTR/W): 85%
- patients who completely discontinued at least one SoC medication ([4]; BTR/W): 10 patients
- patients who withdrew from all SoC (aficamten monotherapy) ([4]; BTR/W): 5 patients
- NT-pro B-type Natriuretic Peptide ([4]; post-BTR/W): 532 ± 934 pg/mL
- high-sensitivity troponin I ([4]; post-BTR/W): 5.1 ± 1.6 ng/L
- mean HR after BTR/W ([4]; post-BTR/W (N=14)): 74±10 bpm
- mean Valsalva LVOT-G after BTR/W ([4]; post-BTR/W (N=14)): 42±26 mmHg
- increase in Valsalva LVOT-G after BTR/W ([4]; pre- vs post-BTR/W (N=14)): 15 mmHg
- increase in resting HR after BTR/W ([4]; pre- vs post-BTR/W (N=14)): 12 bpm
- NT-pro B-type Natriuretic Peptide ([4]; pre-BTR/W): 321 ± 424 pg/mL
- high-sensitivity troponin I ([4]; pre-BTR/W): 4.8 ± 1.8 ng/L
- patients with unsuccessful attempted BTR/W ([4]; reinstitution of BB): 3 patients
- GLS ([5]; week 12 (n=27)): −14.3±3.0%
- GLS ([5]; week 36-48 (n=27)): −14.9%
- effect on left ventricular contractility [6]: reduced measures of left ventricular contractility
